The values that follow come from paper PMC7228129, “Evaluation of Developmental Toxicity, Developmental Neurotoxicity, and Tissue Dose in Zebrafish Exposed to GenX and Other PFAS” (Environmental Health Perspectives, 2020).

For series [1], the system named is zebrafish. As to conditions: Table 5 summary; zebrafish; ref Hagenaars et al. 2011; Ulhaq et al. 2013a; cited from earlier work.
Series [2] relates to zebrafish. To be noted: Table 5 summary, ref Ulhaq et al. 2013b; cited from earlier work.
Series [3] concerns zebrafish. Briefly: Developmental toxicity (DevTox) assay. In kind it is in vivo, Danio rerio. As to conditions: for DevTox assay phenotype: Table 5 summary, this study (some rows also list literature); for EC50: Hill fit. As for the experimental part: (§1) At 0 dpf, zebrafish embryos were bleached as previously described ([Tal et al. 2017]). A single embryo at the dome-to-epiboly stages ([Kimmel et al. 1995]) was placed into each individual well of a 96-well plate containing a 40-μm nylon mesh filter (Millipore, Catalog No. MANMN4010) with 400μL of 10% Hanks’ balanced salt solution (HBSS) per well. Filter inserts containing zebrafish embryos were transferred to 96-well culture trays (Millipore, Catalog No. MAMCS9610) containing 250μL of 10% HBSS ([Westerfield 2007]) and 1μL of 250× working solutions per well. A final concentration of 0.4% DMSO was used for all exposure groups and as a vehicle control. In the case of GenX Free Acid in Study 2 (Figure 1), DI water was used as a vehicle control. Daily, from 1–5 dpf, plates underwent 100% media changes to refresh chemical dosing solutions by blotting (Brandel; Catalog No. FPXLR-196) and transferring mesh inserts containing zebrafish to new bottom plates (Millipore; Catalog No. MAMCS9610). To minimize evaporation, plates were sealed (Biorad; Catalog No. MSA5001) and wrapped with parafilm. Plates were maintained on a 14 h:10 h light cycle at 26.0°C and scored daily for death, malformations, hatching, and swim bladder inflation. At 6 dpf, plates were evaluated by two independent observers and DevTox or DNT assays were performed or media and tissue were collected for analytical chemistry analyses as described below.
In Study 1 (Figure 1), zebrafish were exposed, as described in the “Chemical Exposures” section, to 0.04, 0.1, 0.4, 1.1, 3.1, 9.3, 27.2, or 80.0μM PFOS, PFOA, PFHxS, PFHxA, or ADONA, or 0.4% DMSO. Six 96-well plates were tested with a single chemical concentration included on each microtiter plate. Subsequently, as part of Study 1, zebrafish were exposed to 0.04, 0.1, 0.4, 1.1, 3.1, 9.3, 27.2, or 80.0μM PFESA1, or 0.4% DMSO. In Study 2, GenX Free Acid diluted in DI water was tested by exposing zebrafish to 0.04, 0.1, 0.4, 1.1, 3.1, 9.3, 27.2, or 80.0μM of the compound or DI water. […] Zebrafish were exposed to 1.7, 3.1, 5.5, 9.8, 17.6, 31.4, 56.0, or 100.0μM of PFBS, PFHxS, PFHpS, or PFOS or 0.4% DMSO. Subsequently, zebrafish were exposed to 1.7, 3.1, 5.5, 9.8, 17.6, 31.4, 56.0, or 100.0μM PFPeS, or 0.4% DMSO. Chlorpyrifos was used as positive control for malformations ( 8.0μM ) and lethality ( 80.0μM ) ([Padilla et al. 2012]; [Tal et al. 2017]). To conduct DevTox assay assessments, at 6 dpf, two independent observers evaluated zebrafish larvae for survival, hatching, swim bladder inflation, and malformations, including curved body axis, shortened trunk, pericardial edema, yolk sac edema, necrotic yolk sac, pectoral fin abnormalities and head/jaw abnormalities. Directly after assessments, data were reviewed and, in the case of discrepancies, consensus calls were reached. Toxicity values were assigned to descriptive data (i.e., normal=0 , abnormal=20 , severely abnormal=50 , and dead=100 ), modified from a previously described approach ([Padilla et al. 2012]). Briefly, animals with a single malformation were scored as abnormal, whereas animals with ≥2 malformations were scored as severely abnormal.
For the DevTox assay, a Kruskal-Wallace nonparametric one-way analysis of variance (ANOVA) with a Dunn’s multiple comparison test was used to detect differences between exposure groups (* p<0.05 , ** p<0.0001 ) and LOEC values were determined. If a test for linear trend was significant ( p<0.05 ), with developmental toxicity observed at the highest concentration tested, nonlinear regression was performed with a Hill slope curve fitting for half maximal effective concentration ( EC50 ) value determinations.

Series [4] concerns zebrafish. The series can be described thus: Developmental neurotoxicity (DNT) assay, light/dark locomotor behavior test. Format: in vivo, Danio rerio. To be noted: for DNT assay phenotype: Table 5 summary, this study (some rows also list literature); for Concentration causing hyperactivity in D1 period: dark 1; for Concentration causing hyperactivity in D1 period / Concentration causing hyperactivity in D2 period / Concentration causing hyperactivity in L1 period / Concentration causing hyperactivity in L2 period: vs 0.4% DMSO; for Concentration causing hyperactivity in D2 period: dark 2; for Concentration causing hyperactivity in L1 period: light 1; for Concentration causing hyperactivity in L2 period: light 2. On the procedure: as §1
To increase the likelihood of observing behavioral effects in morphologically normal larvae, the highest concentration evaluated in the DNT assay was the lowest observed effect concentration (LOEC) determined in DevTox assay. Zebrafish were exposed in parallel to 4.4, 7.9, 14.0, 25.1, 44.8, or 80.0μM PFOA, PFHxS, PFHxA, or ADONA or 0.2, 0.3, 0.6, 1.0, 1.8, or 3.1μM PFOS or 0.4% DMSO. Subsequently, as part of Study 1, exposure to 4.4, 7.9, 14.0, 25.1, 44.8, or 80.0μM PFESA1, or 0.4% DMSO was evaluated. In Study 2, zebrafish were exposed to 4.4, 7.9, 14.0, 25.1, 44.8, or 80.0μM GenX Free Acid, or DI water. In Study 3, to increase the likelihood of observing malformations with shorter-chain compounds at multiple test concentrations, the highest concentration evaluated was 100.0μM . Zebrafish were exposed to 5.5, 9.8, 17.6, 31.4, 56.0, or 100.0μM PFBS; 3.1, 5.5, 9.8, 17.6, 31.4, or 56.0μM PFHxS; 1.7, 3.1, 5.5, 9.8, 17.6, or 31.4μM PFHpS; or 0.5, 1.0, 1.7, 3.1, 5.5, or 9.8μM PFOS, or 0.4% DMSO. Subsequently, as part of Study 3, zebrafish were exposed to 3.1, 5.5, 9.8, 17.6, 31.4, or 56.0μM PFPeS, or 0.4% DMSO. Chemical exposures and assessments were performed daily, as described above. To evaluate swimming behavior in a light/dark behavior test, microtiter plates were placed in a dark, temperature-controlled behavior testing room set to 26.0°C for at least 2 h prior to testing. At the time of testing, microtiter plates were placed on a Noldus tracking apparatus. Locomotor activity was recorded (30 frames/s) for a total of 60 min consisting of a 20-min dark acclimation period (0 lux) that was not analyzed followed by a 40-min testing period consisting of a 20-min light period (5.0 lux) and 20-min dark period (0 lux). Videos were analyzed using Ethovision software (version 3.1; Noldus Information Technology) as previously described ([Jarema et al. 2015]). Locomotor activity was collected for each individual fish for each 2-min period (minimum distance moved, set to 0.135cm ). Thus, for a 40-min test, 20 data points were collected per larvae. […] Four additional criteria for inclusion of individual larvae were applied. One, all larvae that were identified as abnormal, severely abnormal, or dead were excluded. Two, larvae with uninflated swim bladders were removed from analyses. Three, individual larvae that moved <2cm in either […] dark period were removed.

Setting [5] is: Study 3, 1.7–100.0 μM daily 0–5 dpf, scored 6 dpf, 0.4% DMSO.
The mark [6] stands for this setting: Danio rerio, Study 3, 1.7–100.0 μM daily 0–5 dpf, scored 6 dpf, 0.4% DMSO.
The mark [7] stands for this setting: Study 3, daily 0–5 dpf, tested 6 dpf.

Entries after “also recorded” stand apart in the source; their conditions may differ. Where two headings read alike, the source gives them in different places.

Consider `O=S(=O)(O)C(F)(F)C(F)(F)C(F)(F)C(F)(F)F` [PFBS, Perfluorobutanesulfonic acid], for which the DevTox assay phenotype entry with zebrafish [1] is “Positive”; in the series with zebrafish [3] it was “Negative”. Moreover, the DNT assay phenotype entry in the series with zebrafish [2] was “Hyperactivity”; with zebrafish [4], “Negative^a”. Also, in the series on zebrafish [3] (setting [5]), the “Developmental toxicity outcome” value was “negative”. Besides, in the series with zebrafish [4] (Study 3, daily 0–5 dpf, tested 6 dpf, 0.4% DMSO), the “Developmental neurotoxicity / locomotor activity outcome” value is listed as “did not result in significant locomotor effects; also recorded: negative”.
In turn, `O=S(=O)(O)C(F)(F)C(F)(F)C(F)(F)C(F)(F)C(F)(F)C(F)(F)C(F)(F)F` [PFHpS, Perfluoroheptanesulfonic acid] had an EC50 in the series with zebrafish [3] (setting [6]) of 168 µM. Besides, in the series with zebrafish [3], the DevTox assay phenotype result is reported as “Positive^a”. Besides, the “LOEC for developmental toxicity” value in the series with zebrafish [3] (sulfonic acid PFAS study, 1.7–100.0 μM daily 0–5 dpf, scored 6 dpf, 0.4% DMSO) was determined as 31.4 µM. Moreover, in the series on zebrafish [4] (setting [7]), the “Concentration causing hyperactivity in D1 period” value is 3.1 to 5.5 µM, the “Concentration causing hyperactivity in D2 period” value is “no effect”, the “Concentration causing hyperactivity in L1 period” value was 5.5 µM and the “Concentration causing hyperactivity in L2 period” value lay in the range of 3.1 to 5.5 µM. Moreover, the DNT assay phenotype entry in the series with zebrafish [4] is given as “Hyperactivity^a”.
With `O=S(=O)(O)C(F)(F)C(F)(F)C(F)(F)C(F)(F)C(F)(F)F` [PFPeS, Perfluoropentanesulfonic acid], in the series with zebrafish [3] (setting [6]), the 50% effective concentration (EC50) amounted to 48.8 µM. The compound further displayed an EC50 with zebrafish [3] (setting [5]) of 48.8 µM. In the series with zebrafish [3], the DevTox assay phenotype result was “Positive^a”. For the same compound, in the series on zebrafish [4] (setting [7]), the “Concentration causing hyperactivity in D1 period” value is “no effect”, the “Concentration causing hyperactivity in D2 period” value is “no effect”, the “Concentration causing hyperactivity in L1 period” value was determined as 5.5 µM and the “Concentration causing hyperactivity in L2 period” value was 3.1 to 5.5 µM. In addition, in the series on zebrafish [4], the DNT assay phenotype entry is recorded as “Hyperactivity^a”.
